# According to patent US12325708B2, “Adenosine 2 receptor antagonists” (Nektar Therapeutics, priority 2019, dated 2025):
# Where two headings read alike, the source gives them in different places.
# How the values were obtained:
# [1] = Plasma pharmacokinetic parameters following intravenous (IV) or oral (PO) administration in rats; type: in vivo, Sprague-Dawley rats; conditions: rat; for Vd: read-out: Vss obs; for AUC / bioavailability: oral; for Total clearance as % liver blood flow: IV; for Plasma concentrations post 8 hr: IV 0.5 mg/kg and PO 2.5 mg/kg; for F: PO 2.5 mg/kg vs IV 0.5 mg/kg
# Outline: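 Fasted male Sprague-Dawley rats (230-250 g, n=2/group), dosed 0.5 mg/kg IV (jugular) or 2.5 mg/kg PO gavage in water. Plasma sampled 2–1440 min, analyzed by LC-MS/MS; non-compartmental analysis with nominal doses/times gave AUC, Cmax, Tmax, CL, Vss, MRTlast, F.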
# A1 receptor = target: T1, A1 receptor (Homo sapiens, UniProt P30542); test: Radioligand receptor binding assay, A1 receptor; conditions: cell membranes overexpressing A1 receptor, read-out: Potency Ki A1
# T1 construct: purchased
# T1 sequence (P30542 1-326): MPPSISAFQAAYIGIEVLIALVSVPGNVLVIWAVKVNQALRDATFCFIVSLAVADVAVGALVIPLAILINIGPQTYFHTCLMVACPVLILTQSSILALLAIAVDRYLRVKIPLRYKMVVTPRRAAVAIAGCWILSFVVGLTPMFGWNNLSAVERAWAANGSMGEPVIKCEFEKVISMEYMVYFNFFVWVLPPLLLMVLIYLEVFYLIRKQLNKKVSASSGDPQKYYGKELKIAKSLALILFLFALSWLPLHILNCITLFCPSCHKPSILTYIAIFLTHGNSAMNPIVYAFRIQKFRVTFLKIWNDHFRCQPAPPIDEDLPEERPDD
# Outline: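 Membranes from cell lines overexpressing human A2A, A1 or A3 receptors were incubated 60 min at room temperature with the receptor-appropriate [3H] tracer. After filtration and washing in 50 mM Tris HCl pH 7.5, bound label was counted by scintillation. IC50 came from nonlinear regression and Ki from the Cheng-Prusoff equation.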
# [2] = male, Sprague-Dawley, plasma, intravenous, 0.5 mg/kg, Table 2 summary of Example 27, values marked 1 are the average of experiments
# [3] = male, Sprague-Dawley, plasma, iv, 0.5 mg/kg, IV 0.5 mg/kg, injectable water
# [4] = male, Sprague-Dawley, plasma, 2.5 mg/kg, Table 2 summary of Example 27, values marked 1 are the average of experiments
# [5] = male, Sprague-Dawley, plasma, po, 2.5 mg/kg, PO 2.5 mg/kg via gavage, injectable water
# [6] = male, Sprague-Dawley, plasma, po, 2.5 mg/kg, PO 2.5 mg/kg via gavage, injectable water, read-out: Cmax
# [7] = male, Sprague-Dawley, plasma, po, 2.5 mg/kg, PO 2.5 mg/kg via gavage, injectable water, read-out: Tmax
# [8] = IV 0.5 mg/kg, injectable water, listed as Compound 1 (#1), 0.5 mg/kg
# [9] = IV 0.5 mg/kg, injectable water, listed as Compound 1 (#2), 0.5 mg/kg
# [10] = PO 2.5 mg/kg via gavage, injectable water, listed as Compound 1 (#1), 2.5 mg/kg
# [11] = PO 2.5 mg/kg via gavage, injectable water, listed as Compound 1 (#2), 2.5 mg/kg
# [12] = IV 0.5 mg/kg, injectable water, listed as Compound 4 (#2), 0.5 mg/kg
# [13] = PO 2.5 mg/kg via gavage, injectable water, listed as Compound 4 (#2), 2.5 mg/kg
smiles,measurement,setting,value
"COCCOc1ccc(N2CCN(CCN(C)c3cc4nc(-c5ncco5)nn4c(N)n3)CC2)cc1 [Compound 1, N^7-(2-{4-[4-(2-methoxyethoxy)phenyl]piperazin-1-yl}ethyl)-N^7-methyl-2-(1,3-oxazol-2-yl)[1,2,4]triazolo[1,5-c]pyrimidine-5,7-diamine]",clearance,[1]; [2],31 mL/min/kg
same,AUC(0-inf),[1]; [3],340 ng·h/mL
same,AUC(0-t),[1]; [3],335 ng·h/mL
same,MRT last,[1]; [3],84.6 to 87 min
same,clearance,[1]; [3],24.6 to 36.1 mL/min/kg
same,Cmax,"[1]; male, Sprague-Dawley, plasma, iv, 0.5 mg/kg, IV 0.5 mg/kg, injectable water, read-out: Cmax",311 ng/mL
same,Tmax,"[1]; male, Sprague-Dawley, plasma, iv, 0.5 mg/kg, IV 0.5 mg/kg, injectable water, read-out: Tmax",2 min
same,Vd,[1]; [3],2.17 to 3.44 L/kg
same,AUC,[1]; [4],969 ng·h/mL
same,bioavailability,[1]; [4],71%
same,AUC(0-inf),[1]; [5],1280 ng·h/mL
same,AUC(0-t),[1]; [5],1220 ng·h/mL
same,Cmax,[1]; [6],242 to 367 ng/mL
same,Tmax,[1]; [7],45 to 60 min
same,Total clearance as % liver blood flow,[1],40-60 % liver blood flow
same,Plasma concentrations post 8 hr,[1],below the limit of quantitation
same,AUCinf,[1]; [8],233 ng·h/mL
same,AUClast,[1]; [8],228 ng·h/mL
same,CL,[1]; [8],36.1 mL/min/kg
same,Cmax,[1]; [8],207 ng/mL
same,MRTlast,[1]; [8],84.6 min
same,Vss obs,[1]; [8],3.44 L/kg
same,CL,[1]; [9],24.6 mL/min/kg
same,MRTlast,[1]; [9],87 min
same,Vss obs,[1]; [9],2.17 L/kg
same,AUCinf,[1]; [10],777 ng·h/mL
same,AUClast,[1]; [10],718 ng·h/mL
same,Cmax,[1]; [10],242 ng/mL
same,Tmax,[1]; [10],45 min
same,Cmax,[1]; [11],367 ng/mL
same,Tmax,[1]; [11],60 min
same,F,[1]; listed as Compound 1 (#1),66.8%
same,F,[1]; listed as Compound 1 (#2),75.5%
same,Ki,A1 receptor,50 µM
"COCCOc1cnc(N2CCN(CCN(C)c3cc4nc(-c5ncco5)nn4c(N)n3)CC2)c(F)c1 [Compound 4, N^7-(2-{4-[3-fluoro-5-(2-methoxyethoxy)pyridin-2-yl]piperazin-1-yl}ethyl)-N^7-methyl-2-(1,3-oxazol-2-yl)[1,2,4]triazolo[1,5-c]pyrimidine-5,7-diamine]",clearance,[1]; [2],34 mL/min/kg
same,AUC(0-inf),[1]; [3],251 ng·h/mL
same,AUC(0-t),[1]; [3],249 ng·h/mL
same,MRT last,[1]; [3],53.4 min
same,clearance,[1]; [3],26.8 to 33.6 mL/min/kg
same,Vd,[1]; [3],1.93 L/kg
same,AUC,[1]; [4],898 ng·h/mL
same,bioavailability,[1]; [4],78%
same,AUC(0-inf),[1]; [5],978 ng·h/mL
same,AUC(0-t),[1]; [5],898 ng·h/mL
same,MRT last,[1]; [5],153 min
same,Cmax,[1]; [6],231 ng/mL
same,Tmax,[1]; [7],30 to 45 min
same,Total clearance as % liver blood flow,[1],45-56 % liver blood flow
same,Plasma concentrations post 8 hr,[1],below the limit of quantitation
same,CL,"[1]; IV 0.5 mg/kg, injectable water, listed as Compound 4 (#1), 0.5 mg/kg",33.6 mL/min/kg
same,AUCinf,[1]; [12],312 ng·h/mL
same,AUClast,[1]; [12],310 ng·h/mL
same,CL,[1]; [12],26.8 mL/min/kg
same,MRTlast,[1]; [12],54.8 min
same,Tmax,"[1]; PO 2.5 mg/kg via gavage, injectable water, listed as Compound 4 (#1), 2.5 mg/kg",45 min
same,AUCinf,[1]; [13],707 ng·h/mL
same,AUClast,[1]; [13],662 ng·h/mL
same,Cmax,[1]; [13],172 ng/mL
same,Tmax,[1]; [13],30 min
same,F,[1]; listed as Compound 4 (#1),77.8%
same,F,[1]; listed as Compound 4 (#2),45.4%
same,Ki,A1 receptor,14 µM
